Where a SMILES comes first, the peptide text is derived from it. [ ]: non-standard residue; d: D form.
What was measured:
[1] = Ion selectivity measurement under asymmetric KCl (reverse potential, Goldman-Hodgkin-Katz); format: biochemical; conditions: 0.15 M KCl cis / 1 M KCl trans
Description: High-resolution electrical recordings for the single-channel characterization were conducted in planar lipid bilayers made up of 1,2-diphytanoyl-sn-glycero-3-phosphocholine (DPhPC, Avanti Polar Lipids)[23],[27],[51]. The lipid bilayer is formed across a polytetrafluoroethylene (Teflon) aperture of ~100 µm in diameter. Teflon is placed between the two sides of the Delrin bilayer chamber, partitioning it into cis and trans compartments (600 µL each). For constructing a solvent-free lipid bilayer, the aperture is made lipophilic by pre-painting both sides with hexadecane in n-pentane (1 μL, 5 mg mL^−1)[51]. After ~10 min, the chambers were filled with buffered electrolytes (1 M KCl, 10 mM HEPES, pH 7.4), and DPhPC in n-pentane (1 μL, 5 mg mL^−1) was added. After ~15 min incubation, the lipid bilayer is formed by raising and lowering the electrolyte solution, bringing the two lipid monolayers together at the aperture. […] Ion selectivity was assessed under asymmetric salt conditions with a KCl concentration gradient across the planar lipid bilayer (0.15 M cis/1 M trans) (SI text)[27]. The ion current was acquired and amplified using an Axopatch 200B amplifier, digitized with Digidata 1550B digitizer, and recorded using the pClamp 11 acquisition software (Molecular Devices, CA). […]

[2] = target: proteinase K (Parengyodontium album, UniProt P06873); experiment: Proteinase K enzyme activity on peptides (SDS-PAGE); format: in vitro ADME; conditions: 0.5 mg/ml proteinase K, 63°C, 30 min, 10 mM phosphate buffer with 0.1% DDM pH 7.4; SDS-PAGE and bilayer insertion
proteinase K, sequence (P06873 106-384, species assumed): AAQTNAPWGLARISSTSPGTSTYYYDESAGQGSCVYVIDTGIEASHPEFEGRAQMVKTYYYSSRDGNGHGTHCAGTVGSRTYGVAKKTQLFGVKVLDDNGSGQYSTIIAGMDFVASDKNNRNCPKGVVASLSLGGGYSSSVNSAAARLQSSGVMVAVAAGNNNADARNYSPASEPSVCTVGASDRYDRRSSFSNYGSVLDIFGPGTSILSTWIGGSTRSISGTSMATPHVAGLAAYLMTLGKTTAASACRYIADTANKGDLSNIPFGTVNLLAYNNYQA
Description: applied through Ag/AgCl electrodes with agarose salt bridges. The pore formation in the […]
The 'reverse potential' (Vm) was calculated using the Goldman-Hodgkin-Katz equation1. […]
In this equation, R is the universal gas constant (8.314 J.K-1.mol-1), T is the temperature in Kelvin (K = °C + 273.15), F is Faraday's constant (96485 C.mol-1), PK+ is the membrane permeability for K+, PCl- is the relative membrane permeability for Cl-, [K+]cis is the concentration of K+ in the cis side, [K+]trans is the concentration of K+ in the trans side, [Cl-]cis is the concentration of Cl- in the cis side and [Cl-]trans is the concentration of Cl- in the trans side.
The reverse potential for DpPorA and DpPorA DE was calculated to be +21 mV and +40 mV, […]
c) Proteinase K enzyme activity on DpPorA and DpPorA DE pores
DpPorA peptides were prepared in 10 mM phosphate buffer with 0.1% DDM (pH 7.4). A final concentration of 0.5 mg/ml of freshly prepared proteinase K solution was added to the samples.
The reaction mixtures were heated at 63°C for 30 min. The proteolysis was terminated by adding 2 mM PMSF (phenylmethyl sulfonyl fluoride).2 The reaction products were loaded on a Mini-PROTEAN® TGX™ precast gel (Bio-Rad) with Protein Standard Marker (Bio-Rad) […]

Row | SMILES | reverse potential (Vm) [1] | stability to proteinase K [2]
1 | CC[C@@H](C)[C@@H](NC(=O)[C@H](N)CCSC)C(=O)N[C@H](CC(=O)O)C(=O)N[C@H](CCC(N)=O)C(=O)N[C@@H](C(=O)N[C@@H](C(=O)N[C@H](CCC(=O)O)C(=O)N[C@@H](C(=O)N[C@H](Cc1ccccc1)C(=O)NCC(=O)N[C@H](CCC(N)=O)C(=O)N[C@H](CC(C)C)C(=O)NCC(=O)N[C@@H](C(=O)N[C@H](Cc1ccccc1)C(=O)N[C@H](CC(C)C)C(=O)NCC(=O)NCC(=O)N[C@H](Cc1ccccc1)C(=O)NCC(=O)N[C@H](CC(N)=O)C(=O)N[C@@H](C(=O)N[C@H](Cc1ccccc1)C(=O)N[C@H](CCCCN)C(=O)NCC(=O)N[C@H](CC(C)C)C(=O)N[C@H](CCCCN)C(=O)N[C@H](C)C(=O)N[C@@H](C(=O)N[C@@H](C(=O)N[C@H](C)C(=O)N[C@@H](C(=O)N[C@@H](C(=O)N[C@@H](C(=O)N[C@H](CCCCN)C(=O)N[C@H](Cc1c[nH]c2ccccc12)C(=O)N[C@@H](C(=O)N[C@H](C)C(=O)N[C@H](C)C(=O)N[C@H](CCCCN)C(=O)O)[C@H](C)O)C(C)C)[C@H](C)CC)[C@H](C)O)[C@H](C)CC)C(C)C)[C@H](C)CC)[C@H](C)O)[C@H](C)CC)[C@H](C)O)[C@H](C)CC [DpPorA DE] (H-[dM][dI][dD][dQ][dI][dT][dE][dI][dF]G[dQ][dL]G[dT][dF][dL]GG[dF]G[dN][dI][dF][dK]G[dL][dK][dA][dV][dI][dA][dT][dI][dV][dK][dW][dT][dA][dA][dK]-OH; N-terminus and C-terminus assumed) | +40 mV | protease-stable
2 | CC[C@@H](C)[C@@H](NC(=O)[C@H](N)CCSC)C(=O)N[C@H](CC(=O)O)C(=O)N[C@H](CCC(N)=O)C(=O)N[C@@H](C(=O)N[C@@H](C(=O)N[C@H](CCC(=O)O)C(=O)N[C@@H](C(=O)N[C@H](Cc1ccccc1)C(=O)NCC(=O)N[C@H](CCC(N)=O)C(=O)N[C@H](CC(C)C)C(=O)NCC(=O)N[C@@H](C(=O)N[C@H](Cc1ccccc1)C(=O)N[C@H](CC(C)C)C(=O)NCC(=O)NCC(=O)N[C@H](Cc1ccccc1)C(=O)NCC(=O)N[C@H](CC(N)=O)C(=O)N[C@@H](C(=O)N[C@H](Cc1ccccc1)C(=O)N[C@H](CCCCN)C(=O)NCC(=O)N[C@H](CC(C)C)C(=O)N[C@H](CCCCN)C(=O)N[C@H](CC(=O)O)C(=O)N[C@@H](C(=O)N[C@@H](C(=O)N[C@H](CCC(=O)O)C(=O)N[C@@H](C(=O)N[C@@H](C(=O)N[C@@H](C(=O)N[C@H](CCCCN)C(=O)N[C@H](Cc1c[nH]c2ccccc12)C(=O)N[C@@H](C(=O)N[C@H](C)C(=O)N[C@H](C)C(=O)N[C@H](CCCCN)C(=O)O)[C@H](C)O)C(C)C)[C@H](C)CC)[C@H](C)O)[C@H](C)CC)C(C)C)[C@H](C)CC)[C@H](C)O)[C@H](C)CC)[C@H](C)O)[C@H](C)CC [DpPorA] (H-[dM][dI][dD][dQ][dI][dT][dE][dI][dF]G[dQ][dL]G[dT][dF][dL]GG[dF]G[dN][dI][dF][dK]G[dL][dK][dD][dV][dI][dE][dT][dI][dV][dK][dW][dT][dA][dA][dK]-OH; N-terminus and C-terminus assumed) | +21 mV | resistant to proteinase K action

Reference: paper PMC12491518, “Fabrication of cytotoxic mirror image nanopores” (Nature Communications, 2025)
